Source: patent US10456385B2 (priority 2011, dated 2019)

Test system: Male ICR mice
Test: Novel Object Recognition Test (NORT) in MK-801-induced amnesia mice
Assay type: in vivo
Conditions: Mus musculus, po, unit mg/kg from method, read-out: MED (dose at which NORT relative RI is given)

| Compound | minimal effective dose [mg/kg] |
| --- | --- |
| CCc1cnc(-n2cc(C(=O)NC3CN4CCC3CC4)ccc2=O)s1 (centres unmarked) [Example 13, N-(1-azabicyclo[2.2.2]octan-3-yl)-1-(5-ethyl-2-thiazolyl)-6-oxo-3-pyridinecarboxamide] | 0.3 |
| CC(C)c1cnc(-n2cc(C(=O)NC3CN4CCC3CC4)ccc2=O)s1 (centres unmarked) [Example 17, N-(1-azabicyclo[2.2.2]octan-3-yl)-6-oxo-1-(5-propan-2-yl-2-thiazolyl)-3-pyridinecarboxamide] | 0.3 |
| O=C(N[C@H]1CN2CCC1CC2)c1ccc(=O)n(-c2nccs2)c1 [Example 2, N-[(3R)-1-azabicyclo[2.2.2]octan-3-yl)-6-oxo-1-(2-thiazolyl)-3-pyridinecarboxamide] | 0.01 |
| O=C(NC1CN2CCC1CC2)c1ccc(=O)n(-c2nc3ccccc3s2)c1 (centres unmarked) [Example 33, N-(1-azabicyclo[2.2.2]octan-3-yl)-1-(1,3-benzothiazole-2-yl)-6-oxo-3-pyridinecarboxamide] | 0.01 |
| Cc1cnc(-n2cc(C(=O)NC3CN4CCC3CC4)ccc2=O)s1 (centres unmarked) [Example 10, N-(1-azabicyclo[2.2.2]octan-3-yl)-1-(5-methyl-2-thiazolyl)-6-oxo-3-pyridinecarboxamide] | 0.3 |
| Cc1cnc(-n2cc(C(=O)N[C@H]3CN4CCC3CC4)ccc2=O)s1 [Example 11, N-[(3R)-1-azabicyclo[2.2.2]octan-3-yl]-1-(5-methyl-2-thiazolyl)-6-oxo-3-pyridinecarboxamide] | 0.03 |
| CC(C)(C)c1cnc(-n2cc(C(=O)NC3CN4CCC3CC4)ccc2=O)s1 (centres unmarked) [Example 20, N-(1-azabicyclo[2.2.2]octan-3-yl)-1-(5-tert-butyl-2-thiazolyl)-6-oxo-3-pyridinecarboxamide] | 0.3 |
| CCc1cnc(-n2cc(C(=O)N[C@H]3CN4CCC3CC4)ccc2=O)s1 [Example 14, N-[(3R)-1-azabicyclo[2.2.2]octan-3-yl]-1-(5-ethyl-2-thiazolyl)-6-oxo-3-pyridinecarboxamide] | 0.03 |
| O=C(NC1CN2CCC1CC2)c1ccc(=O)n(-c2nccs2)c1 (centres unmarked) [Example 1, N-(1-azabicyclo[2.2.2]octan-3-yl)-6-oxo-1-(2-thiazolyl)-3-pyridinecarboxamide] | 0.03 |
| O=C(NC1CN2CCC1CC2)c1ccc(=O)n(-c2ncc(C3CCCCC3)s2)c1 (centres unmarked) [Example 24, N-(1-azabicyclo[2.2.2]octan-3-yl)-1-(5-cyclohexyl-2-thiazolyl)-6-oxo-3-pyridinecarboxamide] | 0.03 |
| O=C(NC1CN2CCC1CC2)c1ccc(=O)n(-c2ncc(Cl)s2)c1 (centres unmarked) [Example 26, N-(1-azabicyclo[2.2.2]octan-3-yl)-1-(5-chloro-2-thiazolyl)-6-oxo-3-pyridinecarboxamide] | 0.3 |
